The values that follow come from US20240376085A1 (Janssen Pharmaceutica NV, priority 2021, published 2024).

For assay [1], the target named is T1, IL-17A : IL-17RA binding (Homo sapiens, UniProt Q16552, K93Q).
T1 construct: Name: IL-17A-Flag
Nature of the assay: IL-17A(FLAG-tagged):IL-17RA(His-tagged) binding disruption Eu-HTRF assay, Protocol 1. Particulars: FLAG-IL-17A 2.5 nM at 2x final concentration; average if tested more than once. The procedure, abridged: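 IC50 came from a one-site competition fit of the acceptor/donor (665/620 nm) HTRF ratio. His-tagged IL-17RA, Eu-anti-FLAG and D2-anti-His were added after a 1 h rt compound preincubation with FLAG-tagged IL-17A dimer in PBS/0.01% Triton X-100, followed by 2 h at rt before reading.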

Assay [2] deals with IL-17A-induced G-CSF production in human normal keratinocyte (NHK). In words: NHK assay: IL-17A-induced G-CSF production in normal human keratinocytes. The conditions noted are these: 24 h, IL-17A 5 ng/mL, average if tested more than once. Format: cell-based. In a few lines:
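Compound titrations are first mixed with recombinant human IL-17A for 1 h at room temperature. The mixture goes onto adult normal human keratinocytes (final IL-17A 5 ng/mL, 5% FBS, 0.2% DMSO) for 24 h at 37 °C. Secreted G-CSF is then measured by HTRF and IC50 fitted.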

pIC50: −log10 of the molar value.

T1 sequence (Q16552 with tags, fused parts or gaps K93Q): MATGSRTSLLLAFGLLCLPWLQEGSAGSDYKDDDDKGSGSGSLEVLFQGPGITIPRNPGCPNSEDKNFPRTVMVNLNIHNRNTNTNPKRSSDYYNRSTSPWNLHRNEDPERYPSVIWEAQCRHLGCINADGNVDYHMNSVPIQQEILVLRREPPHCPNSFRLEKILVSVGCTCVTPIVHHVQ

For the molecule `CC(C)n1ncnc1C(=O)N[C@H](c1nc2cc([C@@H](C)NC(=O)CCC(F)(F)F)ccc2[nH]1)C1CCC(F)(F)CC1` [Example 199, N—((S)-(4,4-Difluorocyclohexyl)(5-((R)-1-(4,4,4-trifluorobutanamido)ethyl)-1H-benzo[d]imidazol-2-yl)methyl)-1-isopropyl-1H-1,2,4-triazole-5-carboxamide], the pIC50 in assay [1] is under 7.00; in assay [2] (Homo sapiens, Keratinocyte), under 7.00.
With `CC(C)(OC[C@H](NC(=O)c1nocc1C1CC1)c1nc2cc([C@H](NC(=O)CC3CC(F)(F)C3)C3CC3)ccc2[nH]1)C(F)(F)F` [Example 268, 4-Cyclopropyl-N—((R)-1-(5-((R)-cyclopropyl(2-(3,3-difluorocyclobutyl)acetamido)methyl)-1H-benzo[d]imidazol-2-yl)-2-((1,1,1-trifluoro-2-methylpropan-2-yl)oxy)ethyl)isoxazole-3-carboxamide], the pIC50 was over 7.30 in assay [1] and 7.00 to 7.30 in assay [2] (Homo sapiens, Keratinocyte).
On to `CC(C)n1cnc(C(=O)N[C@H](c2nc3cc([C@@H](C)NC(=O)CCC(F)(F)F)ccc3[nH]2)C2CCC(F)(F)CC2)n1` [Example 39, N—[(S)-(4,4-Difluorocyclohexyl)-[6-[(1R)-1-(4,4,4-trifluorobutanoylamino)ethyl]-1H-benzimidazol-2-yl]methyl]-1-isopropyl-1,2,4-triazole-3-carboxamide], for which the negative-log IC50 (pIC50) in assay [1] is under 7.00; in assay [2] (Homo sapiens, Keratinocyte) it was under 7.00.
Consider `C[C@@H](NC(=O)CCC(F)(F)F)c1ccc2[nH]c([C@@H](NC(=O)c3coc(CCC(F)(F)F)n3)C3CCC(F)(F)CC3)nc2c1` [Example 225, N—((S)-(4,4-Difluorocyclohexyl)(5-((R)-1-(4,4,4-trifluorobutanamido)ethyl)-1H-benzo[d]imidazol-2-yl)methyl)-2-(3,3,3-trifluoropropyl)oxazole-4-carboxamide], for which the negative logarithm of the IC50 (pIC50) in assay [1] was under 7.00; in assay [2] (Homo sapiens, Keratinocyte), under 7.00.
As for `Cc1nonc1C(=O)N[C@@H](CC(C)(C)C(F)(F)F)c1nc2ccc([C@H](NC(=O)CC3CC3(F)F)C3CC3)cc2[nH]1` (single isomer, unassigned) [Example 183, N—((S)-1-(6-((R)-Cyclopropyl(2-((R*)-2,2-difluorocyclopropyl)acetamido)methyl)-1H-benzo[d]imidazol-2-yl)-4,4,4-trifluoro-3,3-dimethylbutyl)-4-methyl-1,2,5-oxadiazole-3-carboxamide], the pIC50 was over 7.30 in assay [1] and under 7.00 in assay [2] (Homo sapiens, Keratinocyte).
Taken in the same sequence, the figures for `C[C@@H](NC(=O)CCC(F)(F)F)c1ccc2[nH]c([C@@H](NC(=O)c3ncn(CC4CC4)n3)C3CCC(F)(F)CC3)nc2c1` [Example 29, 1-(Cyclopropylmethyl)-N—[(S)-(4,4-difluorocyclohexyl)-[6-[(1R)-1-(4,4,4-trifluorobutanoylamino)ethyl]-1H-benzimidazol-2-yl]methyl]-1,2,4-triazole-3-carboxamide] were under 7.00 and under 7.00.
Taken in the same sequence, the figures for `COCCn1ncc(C(=O)N[C@H](c2nc3cc([C@@H](C)NC(=O)CCC(F)(F)F)ccc3[nH]2)C2CCC(F)(F)CC2)n1` [Example 14, N—[(S)-(4,4-Difluorocyclohexyl)-[6-[(1R)-1-(4,4,4-trifluorobutanoylamino)ethyl]-1H-benzimidazol-2-yl]methyl]-2-(2-methoxyethyl)triazole-4-carboxamide] were under 7.00 and under 7.00.
In the same order, the values of `C[C@@H](NC(=O)CCC(F)(F)F)c1ccc2nc([C@@H](NC(=O)c3cnnn3CC3CC(F)(F)C3)C3CCC(F)(F)CC3)[nH]c2c1` [Example 66, 1-((3,3-Difluorocyclobutyl)methyl)-N—((S)-(4,4-difluorocyclohexyl)(6-((R)-1-(4,4,4-trifluorobutanamido)ethyl)-1H-benzo[d]imidazol-2-yl)methyl)-1H-1,2,3-triazole-5-carboxamide] are under 7.00 and 7.00 to 7.30.
Turning to `Cn1nccc1C(=O)N[C@H](c1nc2cc(C(NC(=O)CCC(F)(F)F)C3CC3)ccc2[nH]1)C1CCC(F)(F)CC1` (single isomer, unassigned) [Example 55, N—((S)-(5-((R*)-Cyclopropyl(4,4,4-trifluorobutanamido)methyl)-1H-benzo[d]imidazol-2-yl)(4,4-difluorocyclohexyl)methyl)-1-methyl-1H-pyrazole-5-carboxamide], the negative logarithm of the IC50 (pIC50) in assay [1] and in assay [2] was under 7.00 throughout.
For the molecule `C[C@@H](NC(=O)CCC(F)(F)F)c1ccc2[nH]c([C@@H](NC(=O)c3cnn(CC(F)F)n3)C3CCC(F)(F)CC3)nc2c1` [Example 37, N—[(S)-(4,4-Difluorocyclohexyl)-[6-[(1R)-1-(4,4,4-trifluorobutanoylamino)ethyl]-1H-benzimidazol-2-yl]methyl]-2-(2,2-difluoroethyl)triazole-4-carboxamide], the pIC50 in assay [1] was under 7.00; in assay [2] (Homo sapiens, Keratinocyte) it was under 7.00.
Turning to `C[C@@H](NC(=O)CCC(F)(F)F)c1ccc2[nH]c([C@@H](NC(=O)c3cc(CCC(F)(F)F)on3)C3CCC(F)(F)CC3)nc2c1` [Example 217, N—((S)-(4,4-Difluorocyclohexyl)(5-((R)-1-(4,4,4-trifluorobutanamido)ethyl)-1H-benzo[d]imidazol-2-yl)methyl)-5-(3,3,3-trifluoropropyl)isoxazole-3-carboxamide], the negative-log IC50 (pIC50) in assay [1] was under 7.00; in assay [2] (Homo sapiens, Keratinocyte), under 7.00.
With `C[C@@H](NC(=O)CCC(F)(F)F)c1ccc2[nH]c([C@@H](NC(=O)c3cn(CC4CCC4)nc3C#N)C3CCC(F)(F)CC3)nc2c1` [Example 88, 3-Cyano-1-(cyclobutylmethyl)-N—((S)-(4,4-difluorocyclohexyl)(5-((R)-1-(4,4,4-trifluorobutanamido)ethyl)-1H-benzo[d]imidazol-2-yl)methyl)-1H-pyrazole-4-carboxamide], the pIC50 in assay [1] is under 7.00; in assay [2] (Homo sapiens, Keratinocyte) it was under 7.00.
As for `C[C@@H](NC(=O)CCC(F)(F)F)c1ccc2[nH]c([C@@H](NC(=O)c3nn(CC4CCC4)cc3C#N)C3CCC(F)(F)CC3)nc2c1` [Example 91, 4-Cyano-1-(cyclobutylmethyl)-N—((S)-(4,4-difluorocyclohexyl)(5-((R)-1-(4,4,4-trifluorobutanamido)ethyl)-1H-benzo[d]imidazol-2-yl)methyl)-1H-pyrazole-3-carboxamide], the pIC50 in assay [1] is under 7.00; in assay [2] (Homo sapiens, Keratinocyte), under 7.00.
`C[C@@H](NC(=O)CCC(F)(F)F)c1ccc2[nH]c([C@@H](NC(=O)c3ncnn3CCC(F)F)C3CCC(F)(F)CC3)nc2c1` [Example 41, N—[(S)-(4,4-Difluorocyclohexyl)-[6-[(1R)-1-(4,4,4-trifluorobutanoylamino)ethyl]-1H-benzimidazol-2-yl]methyl]-2-(3,3-difluoropropyl)-1,2,4-triazole-3-carboxamide]: the negative logarithm of the IC50 (pIC50) was under 7.00 in assay [1] and under 7.00 in assay [2] (Homo sapiens, Keratinocyte).
On to `Cc1nonc1C(=O)N[C@H](c1nc2cc([C@H](NC(=O)CCC(F)(F)F)C3CC3)ccc2[nH]1)[C@@H]1CCCC(F)(F)C1` [Example 263, N—((S)-(5-((R)-Cyclopropyl(4,4,4-trifluorobutanamido)methyl)-1H-benzo[d]imidazol-2-yl)((R)-3,3-difluorocyclohexyl)methyl)-4-methyl-1,2,5-oxadiazole-3-carboxamide], for which the negative-log IC50 (pIC50) in assay [1] was over 7.30; in assay [2] (Homo sapiens, Keratinocyte) it was 7.00 to 7.30.
Consider `C[C@@H](NC(=O)CCC(F)(F)F)c1ccc2[nH]c([C@@H](NC(=O)c3ccn4c3CCC4)C3CCC(F)(F)CC3)nc2c1` [Example 210, N—((S)-(4,4-Difluorocyclohexyl)(5-((R)-1-(4,4,4-trifluorobutanamido)ethyl)-1H-benzo[d]imidazol-2-yl)methyl)-2,3-dihydro-1H-pyrrolizine-7-carboxamide], for which the pIC50 in assay [1] is under 7.00; in assay [2] (Homo sapiens, Keratinocyte), under 7.00.
With `C[C@@H](NC(=O)CCC(F)(F)F)c1ccc2nc([C@@H](NC(=O)c3cccc(C#N)c3)C3CCC(F)(F)CC3)[nH]c2c1` [Example 131, 3-Cyano-N—((S)-(4,4-difluorocyclohexyl)(6-((R)-1-(4,4,4-trifluorobutanamido)ethyl)-1H-benzo[d]imidazol-2-yl)methyl)benzamide], the negative-log IC50 (pIC50) in assay [1] was under 7.00; in assay [2] (Homo sapiens, Keratinocyte) it was under 7.00.
With `CC(C)c1ccsc1C(=O)N[C@H](c1nc2cc([C@@H](C)NC(=O)CCC(F)(F)F)ccc2[nH]1)C1CCC(F)(F)CC1` [Example 205, N—((S)-(4,4-Difluorocyclohexyl)(5-((R)-1-(4,4,4-trifluorobutanamido)ethyl)-1H-benzo[d]imidazol-2-yl)methyl)-3-isopropylthiophene-2-carboxamide], the pIC50 in assay [1] is over 7.30; in assay [2] (Homo sapiens, Keratinocyte), 7.00 to 7.30.
In the same order, the values of `Cc1nonc1C(=O)N[C@@H](C[C@H]1CCC(F)(F)C1)c1nc2ccc([C@H](NC(=O)CC3CC(F)(F)C3)C3CC3)cc2[nH]1` [Example 235, N—((S)-1-(6-((R)-Cyclopropyl(2-(3,3-difluorocyclobutyl)acetamido)methyl)-1H-benzo[d]imidazol-2-yl)-2-((R)-3,3-difluorocyclopentyl)ethyl)-4-methyl-1,2,5-oxadiazole-3-carboxamide] are under 7.00 and under 7.00.
In the same order, the values of `CCn1ncc(C(=O)N[C@H](c2nc3cc([C@@H](C)NC(=O)CCC(F)(F)F)ccc3[nH]2)C2CCC(F)(F)CC2)n1` [Example 7, N—[(S)-(4,4-Difluorocyclohexyl)-[6-[(1R)-1-(4,4,4-trifluorobutanoylamino)ethyl]-1H-benzimidazol-2-yl]methyl]-2-ethyl-triazole-4-carboxamide] are under 7.00 and under 7.00.
